In patent publication US11076595B2, “1-(n,n-disubstituted carbamoyl) 4-(substituted sulfonyl)triazolin-5-one derivative, 4-(n,n-disubstituted carbamoyl) 1-(substituted sulfonyl)triazolin-5-one derivative, and herbicide containing said derivative as active ingredient” (HOKKO CHEMICAL INDUSTRY CO., LTD., priority 2017, dated 2021):

Legend:
Format in all cases: in vivo
crabgrass [1] = test: Test Example 14: herbicidal effect test by foliage treatment in upland field; conditions: 7 days after sowing, 120 g/10a, 14 days after treatment
How it was run: (§1)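 Weeds sown 20 seeds each in alluvial field soil; 7 days after sowing, water-diluted emulsifiable concentrate sprayed at 100 L per 10 are, 120 g active ingredient per 10 are. Suppression rate (%) from dry weight versus untreated plots at 14 days, two replicates.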

Chenopodium album [2] = test: as above; conditions: 7 days after sowing, 120 g/10a, 14 days after treatment
How it was run: as §1

Amaranthus viridis [3] = test: as above; conditions: 7 days after sowing, 120 g/10a, 14 days after treatment
How it was run: as §1

Echinochloa crus-galli [4] = test: as above; conditions: 7 days after sowing, 120 g/10a, 14 days after treatment
How it was run: as §1

crabgrass [5] = test: Test Example 13: herbicidal effect test by soil treatment in upland field; conditions: 120 g/10a, 14 days after treatment
How it was run: (§2)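 Weed suppression rate (%) computed at 14 days as 1 minus treated/untreated mean dry weight, times 100, with two replicates per concentration. Emulsifiable concentrate diluted in water was applied at 120 g a.i. per 10 are (100 liter per 10 are) onto soil surface one day post-sowing of 20 seeds each in 36 cm^2 pots of alluvial soil.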

Amaranthus viridis [6] = test: as above; conditions: 120 g/10a, 14 days after treatment
How it was run: as §2

Chenopodium album [7] = test: as above; conditions: 120 g/10a, 14 days after treatment
How it was run: as §2

Echinochloa crus-galli [8] = test: as above; conditions: 120 g/10a, 14 days after treatment
How it was run: as §2

Lindernia pyxidaria [9] = test: Test Example 11: herbicidal effect test by soil treatment in paddy field; conditions: 120 g/10a active ingredient, 14 days after treatment
How it was run: (§3)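 Pre-emergence flooded-paddy test: the water-diluted emulsifiable concentrate, 120 g active ingredient per 10 are, was dripped into pots immediately after seeding, with water held at about 3 cm. Two replicate pots per rate; 14 days after treatment, plant dry weight versus untreated pots gave the weed suppression rate.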

Scirpus juncoides [10] = test: as above; conditions: 120 g/10a active ingredient, 14 days after treatment
How it was run: as §3

Monochoria vaginalis [11] = test: as above; conditions: 120 g/10a active ingredient, 14 days after treatment
How it was run: as §3

Echinochloa crus-galli [12] = test: as above; conditions: 120 g/10a active ingredient, 14 days after treatment
How it was run: as §3

Lindernia pyxidaria [13] = test: Test Example 12: herbicidal effect test by treatment during growing period in paddy field; conditions: 120 g/10a; treatment seven days after sowing in flooded paddy pot; assessed 14 days after treatment
How it was run: (§4)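 Weed suppression (%) = (1 − treated/untreated mean dry weight) × 100, scored 14 days after treatment with two replicates per plot. Dose 120 g a.i. per 10 are, as diluted emulsifiable concentrate added dropwise to flooded pots (water about 3 cm) 7 days post-sowing, seeds at 0-1 cm.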

Scirpus juncoides [14] = test: as above; conditions: 120 g/10a; treatment seven days after sowing in flooded paddy pot; assessed 14 days after treatment
How it was run: as §4

Monochoria vaginalis [15] = test: as above; conditions: 120 g/10a; treatment seven days after sowing in flooded paddy pot; assessed 14 days after treatment
How it was run: as §4

Echinochloa crus-galli [16] = test: as above; conditions: 120 g/10a; treatment seven days after sowing in flooded paddy pot; assessed 14 days after treatment
How it was run: as §4

| SMILES | herbicidal effect, Crabgrass (crabgrass [1]) | herbicidal effect, Chenopodium album (Chenopodium album [2]) | herbicidal effect, Amaranthus viridis (Amaranthus viridis [3]) | herbicidal effect, Echinochloa crus-galli (Echinochloa crus-galli [4]) | herbicidal effect, Crabgrass (crabgrass [5]) | herbicidal effect, Amaranthus viridis (Amaranthus viridis [6]) | herbicidal effect, Chenopodium album (Chenopodium album [7]) | herbicidal effect, Echinochloa crus-galli (Echinochloa crus-galli [8]) | Weed suppression rate (%) Lindemia pyxidaria (Lindernia pyxidaria [9]) | Weed suppression rate (%) Scirpus juncoides (Scirpus juncoides [10]) | Weed suppression rate (%) Monochoria vaginalis (Monochoria vaginalis [11]) | Weed suppression rate (%) Echinochloa crus-galli (Echinochloa crus-galli [12]) | Weed suppression rate (%) Lindemia pyxidaria (Lindernia pyxidaria [13]) | Weed suppression rate (%) Scirpus juncoides (Scirpus juncoides [14]) | Weed suppression rate (%) Monochoria vaginalis (Monochoria vaginalis [15]) | Weed suppression rate (%) Echinochloa crus-galli (Echinochloa crus-galli [16]) |
| --- | --- | --- | --- | --- | --- | --- | --- | --- | --- | --- | --- | --- | --- | --- | --- | --- |
| Cc1ccccc1S(=O)(=O)n1ncn(C(=O)N(c2ccc(F)cc2F)C(C)C)c1=O [Compound 11-623] | 60% | 40% | 40% | 80% | 90% | 0% | 0% | 100% | 100% | 90% | 90% | 100% | 100% | 90% | 100% | 100% |
| CC(C)N(C(=O)n1cnn(S(=O)(=O)c2ccccc2Cl)c1=O)c1ccccc1 [Compound 11-501] | 90% | 0% | 0% | 70% | 90% | 0% | 0% | 40% | 90% | 90% | 80% | 100% | 80% | 90% | 90% | 100% |
| CC(C)N(C(=O)n1cnn(S(=O)(=O)N(C)C)c1=O)c1ccc(F)cc1F [Compound 11-1064] | 90% | 80% | 70% | 90% | 100% | 90% | 90% | 100% | 100% | 100% | 100% | 100% | 90% | 90% | 90% | 100% |
| CC(C)N(C(=O)n1cnn(S(=O)(=O)C(C)C)c1=O)c1c(F)cccc1F [Compound 11-61] | 100% | 70% | 70% | 100% | 100% | 90% | 80% | 100% | 100% | 100% | 80% | 100% | 100% | 80% | 100% | 100% |
| CC(C)N(C(=O)n1cnn(S(=O)(=O)c2ccc(C(C)(C)C)cc2)c1=O)c1ccc(Cl)cn1 [Compound 11-706] | 50% | 40% | 70% | 0% | 80% | 50% | 50% | 80% | 100% | 90% | 80% | 100% | 80% | 70% | 80% | 80% |
| CC(C)N(C(=O)n1cnn(S(=O)(=O)C2CC2)c1=O)c1ccccc1F [Compound 11-160] | 90% | 80% | 90% | 80% | 90% | 90% | 80% | 80% | 90% | 90% | 70% | 100% | 90% | 90% | 70% | 100% |
| CC(C)N(C(=O)n1cnn(S(C)(=O)=O)c1=O)c1ccc(F)cc1F [Compound 11-12] | 90% | 90% | 80% | 90% | 100% | 100% | 90% | 100% | 100% | 100% | 100% | 100% | 100% | 90% | 90% | 100% |
| CC(C)N(C(=O)n1cnn(S(=O)(=O)c2ccccc2)c1=O)c1ccc(F)cc1F [Compound 11-367] | 90% | 40% | 40% | 90% | 100% | 40% | 40% | 100% | 100% | 90% | 90% | 100% | 90% | 90% | 90% | 100% |
| CC(C)N(C(=O)n1cnn(S(=O)(=O)c2ccccc2Cl)c1=O)c1ccc(F)cc1F [Compound 11-512] | 90% | 50% | 40% | 80% | 100% | 70% | 50% | 100% | 100% | 100% | 100% | 100% | 100% | 90% | 100% | 100% |
| CC(C)N(C(=O)n1cnn(S(=O)(=O)C2CCCCC2)c1=O)c1c(F)cccc1F [Compound 11-296] | 100% | 70% | 90% | 100% | 100% | 60% | 70% | 100% | 100% | 100% | 70% | 100% | 80% | 90% | 90% | 100% |
